Assay: White rabbit vaginal irritation and toxicity study (10 days)
Type: in vivo
Settings: female rabbits, 10 days after application; animals with finding
Method: Gel formulations of the compound B at different concentrations were used to study the exclusion of any irritation in a Rabbit Vaingal Irritation test. 10 days after the application of the gel formulations onto 6 different rabbit groups, vaginal and cervical epithelium were carefully examined by a pathologist macroscopically and histologically. The following scores were determined.

## Nonoxynol-9 [Nonoxynol-9, 4%]
  Cervical examination: Epithelial loss and atrophy, Marked: 3
  Cervical examination: Epithelial loss and atrophy, Slight: 1
  Cervical examination: Epithelial loss and atrophy, Total: 4a
  Cervical examination: Luminal Inflammatory cells, Present: 4
  Cervical examination: Luminal Inflammatory cells, Total: 4a
  Vaginal examination: Epithelial inflammatory infiltrate, Minimal: 3
  Vaginal examination: Epithelial inflammatory infiltrate, Slight: 2
  Vaginal examination: Epithelial inflammatory infiltrate, Total: 5a
  Vaginal examination: Epithelial loss and atrophy, Marked: 2
  Vaginal examination: Epithelial loss and atrophy, Severe: 3
  Vaginal examination: Epithelial loss and atrophy, Total: 5b
